Data set [1] addresses Vasopressin V1a receptor (Homo sapiens, UniProt P37288). Nature of the data set: Antagonist activity at human V1A receptor expressed in HEK cells assessed as inhibition of AVP-induced intracellular calcium flux incubated for 45 mins by Indo1-AM dye based fluorescence assay relative to AVP. It is filed as functional, cell-based.
In data set [2] the target is T1, Oxytocin receptor (Homo sapiens, UniProt P30559).
T1 sequence (P30559 whole entry): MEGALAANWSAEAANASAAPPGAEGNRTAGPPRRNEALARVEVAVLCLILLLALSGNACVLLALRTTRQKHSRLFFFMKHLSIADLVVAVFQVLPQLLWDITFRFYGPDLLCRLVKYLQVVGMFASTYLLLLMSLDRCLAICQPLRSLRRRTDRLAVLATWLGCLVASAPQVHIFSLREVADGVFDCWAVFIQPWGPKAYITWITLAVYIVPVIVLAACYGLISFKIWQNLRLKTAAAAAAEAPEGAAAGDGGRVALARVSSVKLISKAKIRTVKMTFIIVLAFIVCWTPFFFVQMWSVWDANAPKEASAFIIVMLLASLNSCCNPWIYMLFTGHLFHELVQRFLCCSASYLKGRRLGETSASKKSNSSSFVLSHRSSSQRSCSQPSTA
Nature of the data set: Displacement of DY647 from SNAP-tagged OTR receptor (unknown origin) expressed in HEK293 cells by TR-FRET assay. It is filed as cell-based. Background: In TR-FRET formats the signal depends on donor and acceptor labels being close together.

Data set [3] addresses T1, Oxytocin receptor. Nature of the data set: Agonist activity at human OTR expressed in HEK cells assessed as increase in intracellular calcium flux incubated for 45 mins by Indo1-AM dye based fluorescence assay. It is filed as functional, cell-based.
For data set [4], the target named is T2, Oxytocin receptor (Homo sapiens) (UniProt P30559).
T2 sequence (whole entry): T1 sequence (P30559 whole entry)
Nature of the data set: Antagonist activity at human OTR expressed in HEK cells assessed as inhibition of OT-induced intracellular calcium flux at 1 uM incubated for 45 mins by Indo1-AM dye based fluorescence assay relative to OT. It is filed as functional, cell-based.

The subject of data set [5] is Mus musculus. Nature of the data set: Improvement in social interaction in Oprm1-/- mouse model of autism spectrum disorders assessed as restoration of mean duration of nose contacts at 10 mg/kg, ip pre-treated before open-field test for 10 mins. It is filed as functional, organism-based.
In data set [6] the test system is Mus musculus. Nature of the data set: Improvement in social interaction in Oprm1-/- mouse model of autism spectrum disorders assessed as suppression of grooming episodes occurring after social contact at 10 mg/kg, ip pre-treated before open-field test for 10 mins. It is filed as functional, organism-based.
Data set [7] deals with Mus musculus. Nature of the data set: Effect on social interaction in Oprm1+/+ mouse model of autism spectrum disorders assessed as number of nose contacts at 10 mg/kg, ip pre-treated before open-field test for 10 mins. It is filed as ADME, organism-based. The note with it: in vivo.
Data set [8] has as its system Mus musculus. Nature of the data set: Effect on social interaction in Oprm1+/+ mouse model of autism spectrum disorders assessed as increase in number of following episodes at 10 mg/kg, ip pre-treated before open-field test for 10 mins. It is filed as ADME, organism-based. The note with it: in vivo.
The subject of data set [9] is Mus musculus. Nature of the data set: Improvement in social interaction in Oprm1-/- mouse model of autism spectrum disorders assessed as restoration of number of nose contacts at 20 mg/kg, ip pre-treated before open-field test for 10 mins. It is filed as functional, organism-based.
Data set [10] deals with Mus musculus. Nature of the data set: Improvement in social interaction in Oprm1-/- mouse model of autism spectrum disorders assessed as restoration of time spent in nose contacts at 20 mg/kg, ip pre-treated before open-field test for 10 mins. It is filed as functional, organism-based.
Data set [11] relates to Mus musculus. Nature of the data set: Improvement in social interaction in Oprm1-/- mouse model of autism spectrum disorders assessed as restoration of number of following episodes at 20 mg/kg, ip pre-treated before open-field test for 10 mins. It is filed as functional, organism-based.
The test system of data set [12] is Mus musculus. Nature of the data set: Effect on social interaction in Oprm1+/+ mouse model of autism spectrum disorders assessed as grooming episodes occurring after social contact at 10 mg/kg, ip pre-treated before open-field test for 10 mins. It is filed as ADME, organism-based. The note with it: in vivo.
The nature of data set [13]: AUC in brain of CD1 mouse at 10 mg/kg, ip measured over 15 mins to 240 mins by UHPLC-MS/MS method. It is filed as ADME, organism-based. Details: dose 10 mg/kg, time upper 4 hr, time lower 0.25 hr, route intraperitoneal. The note with it: in vivo.
A short description of data set [14]: Thermodynamic solubility in pH 7.4 buffer. It is filed as physicochemical. Conditions: read-out: Therm_solubility.
A short description of data set [15]: Lipophilicity, log D of the compound. It is filed as physicochemical. The note with it: octanol/water.
Data set [16] addresses T1, Oxytocin receptor. Nature of the data set: Agonist activity at human OTR receptor expressed in HEK293FT cells assessed as stimulation of calcium release by Aequorin based assay. It is filed as functional, cell-based.
For data set [17], the target named is T3, Oxytocin receptor (Mus musculus, UniProt P97926).
T3 sequence (P97926 whole entry): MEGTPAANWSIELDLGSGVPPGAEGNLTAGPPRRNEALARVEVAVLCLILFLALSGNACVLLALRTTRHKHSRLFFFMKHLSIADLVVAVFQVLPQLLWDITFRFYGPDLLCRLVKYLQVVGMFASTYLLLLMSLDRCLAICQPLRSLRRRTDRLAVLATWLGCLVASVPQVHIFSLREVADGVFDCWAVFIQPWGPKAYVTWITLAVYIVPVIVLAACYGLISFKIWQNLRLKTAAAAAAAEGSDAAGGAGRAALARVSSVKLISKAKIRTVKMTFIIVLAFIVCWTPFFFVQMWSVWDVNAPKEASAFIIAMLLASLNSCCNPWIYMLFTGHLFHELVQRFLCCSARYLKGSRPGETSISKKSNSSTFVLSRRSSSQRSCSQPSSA
Nature of the data set: Agonist activity at mouse OTR receptor expressed in HEK293FT cells assessed as stimulation of calcium release by Aequorin based assay. It is filed as functional, cell-based.

For data set [18], the target named is T4, Oxytocin receptor (Mus musculus) (UniProt P97926).
T4 sequence (whole entry): T3 sequence (P97926 whole entry)
Nature of the data set: Agonist activity at mouse OTR receptor expressed in HEK293FT cells assessed as stimulation of calcium release by Aequorin based assay relative to OT. It is filed as functional, cell-based.

The target of data set [19] is T5, Vasopressin V2 receptor (Homo sapiens, UniProt P30518). Nature of the data set: Agonist activity at human V2 receptor expressed in HEK293FT cells assessed as stimulation of calcium release by Aequorin based assay relative to AVP. It is filed as functional, cell-based.
The target in data set [20] is T6, Vasopressin V1b receptor (Homo sapiens, UniProt P47901).
T6 sequence (P47901 whole entry): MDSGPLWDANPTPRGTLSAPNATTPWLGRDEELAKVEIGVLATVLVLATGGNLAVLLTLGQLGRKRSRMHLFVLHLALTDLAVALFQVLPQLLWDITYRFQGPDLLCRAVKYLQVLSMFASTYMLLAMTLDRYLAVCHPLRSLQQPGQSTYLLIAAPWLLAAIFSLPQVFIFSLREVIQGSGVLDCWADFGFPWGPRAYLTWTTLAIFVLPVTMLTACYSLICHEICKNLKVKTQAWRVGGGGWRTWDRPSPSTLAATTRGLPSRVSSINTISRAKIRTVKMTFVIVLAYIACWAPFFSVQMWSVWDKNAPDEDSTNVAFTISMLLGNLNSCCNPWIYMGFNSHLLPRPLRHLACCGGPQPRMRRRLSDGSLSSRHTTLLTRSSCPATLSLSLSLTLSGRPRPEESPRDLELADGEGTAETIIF
Nature of the data set: Antagonist activity at human V1b receptor expressed in HEK293FT cells assessed as inhibition of AVP-induced calcium release by Aequorin based assay. It is filed as functional, cell-based.

The target of data set [21] is T5, Vasopressin V2 receptor. Nature of the data set: Agonist activity at human V2 receptor expressed in HEK293FT cells incubated for 30 mins by beta-arrestin recruitment assay. It is filed as functional, cell-based. Background: Recruitment of arrestin is a read-out of receptor activation apart from second messengers.
The target of data set [22] is T6, Vasopressin V1b receptor. Nature of the data set: Antagonist activity at human V1b receptor expressed in HEK293FT cells assessed as inhibition of AVP-induced response incubated for 30 mins by beta-arrestin recruitment assay. It is filed as functional, cell-based.
Data set [23] deals with T6, Vasopressin V1b receptor.
Description: Agonist activity at human V1b receptor expressed in HEK293FT cells incubated for 30 mins by beta-arrestin recruitment assay

pEC50, pIC50, pKi: −log10 of the molar value. In brackets after ≈: the same amount, converted by molar mass. Activity calls are given as the source filed them. The rule behind the calls is not given here.

T5 sequence (P30518 whole entry): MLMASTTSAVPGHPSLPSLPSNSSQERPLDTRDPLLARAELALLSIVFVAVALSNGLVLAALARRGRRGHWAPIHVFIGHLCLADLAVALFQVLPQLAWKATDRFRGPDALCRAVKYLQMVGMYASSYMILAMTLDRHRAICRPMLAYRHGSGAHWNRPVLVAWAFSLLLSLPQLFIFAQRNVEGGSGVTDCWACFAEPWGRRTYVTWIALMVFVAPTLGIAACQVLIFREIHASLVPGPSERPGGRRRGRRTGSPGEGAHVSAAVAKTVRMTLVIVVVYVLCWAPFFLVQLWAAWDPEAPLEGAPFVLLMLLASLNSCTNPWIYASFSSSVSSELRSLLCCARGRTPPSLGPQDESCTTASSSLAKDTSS
Chain of Vasopressin V1a receptor (P37288 whole entry): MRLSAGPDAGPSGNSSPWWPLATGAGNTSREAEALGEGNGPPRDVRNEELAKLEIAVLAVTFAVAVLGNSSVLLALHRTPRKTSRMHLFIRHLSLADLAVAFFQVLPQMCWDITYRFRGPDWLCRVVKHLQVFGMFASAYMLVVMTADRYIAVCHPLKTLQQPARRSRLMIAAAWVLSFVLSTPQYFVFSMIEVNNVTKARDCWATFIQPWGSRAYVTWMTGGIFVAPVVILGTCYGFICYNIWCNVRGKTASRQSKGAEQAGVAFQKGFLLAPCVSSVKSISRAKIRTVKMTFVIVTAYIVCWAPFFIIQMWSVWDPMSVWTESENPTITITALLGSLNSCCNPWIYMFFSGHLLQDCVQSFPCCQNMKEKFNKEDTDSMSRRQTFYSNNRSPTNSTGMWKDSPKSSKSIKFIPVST

For orientation: pIC50 means −log10 of the IC50, conventionally taken in molar units. As a reminder, the pKi is the Ki on a negative log10 scale, so that one unit is a factor of ten. A lower pKi goes with a large Ki. The term pEC50 denotes the negative decadic logarithm of the EC50, by convention in mol/L. The term inhibition denotes the change of the read-out against control, counted positive when it falls. As a reminder, the logD is lipophilicity at a set pH, counting ionised and neutral species. The term Emax denotes the size of the effect at its maximum, as opposed to the concentration needed. Regarding `Cc1cc(C(=O)N2Cc3cnn(C)c3Nc3ccccc32)ccc1CNC(=O)N1CCC[C@H]1C(=S)N(C)C`, the pIC50 in data set [1] was 7.00. The compound further showed a negative-log Ki (pKi) in [2] of 6.65. The negative-log EC50 (pEC50) was 7.26 in [3], 7.60 in data set [16], 7.74 in data set [17] and 6.18 in data set [21]. In addition, the inhibition in data set [4] is 5 to 10%. Further, the outcome in data set [5] and in data set [6] was Active. Besides, the Activity entry in data set [7] was “Non-Toxic”; in [8] it was “Toxic”; in [12] it was “Toxic”. In addition, the result in data set [9], in [10] and in data set [11] was inactive. This compound also registered an AUC in data set [13] of 399 ng·min/g. Also, the solubility thermodynamic in data set [14] was determined as 680 µM (≈ 362 µg/mL). Further, the logD in data set [15] was 2. Besides, the values for the Emax in data set [18] and in data set [19] were 96% and 101%, respectively. The IC50 entry in data set [20] and in data set [22] was “Not Active” throughout. In data set [23], the EC50 entry is recorded as “Not Active”.
